Reference: US8377931B2, “Benzoxazine derivatives and uses thereof” (Roche Palo Alto LLC, priority 2002, dated 2013)
Structures can show the parent of a compound that is named as a salt.

melting point [°C] | Structure (SMILES)
202 to 205 | O=S(=O)(c1ccccc1)N1CCOc2c(N3CCNCC3)cc(Cl)cc21 (as salt: hydrochloride)
147.9 to 152.9 | Cc1cc(N2CCNCC2)c2c(c1)N(S(=O)(=O)c1ccc(Cl)cc1)CCO2 (as salt: hydrochloride)
158.5 to 163.5 | CS(=O)(=O)Nc1cccc(S(=O)(=O)N2CCOc3c(N4CCNCC4)cccc32)c1 [Compound 20, N-[3-(8-Piperazin-1-yl-2,3-dihydro-benzo[1,4]oxazine-4-sulfonyl)-phenyl]-methanesulfonamide]
